Experimental data published in US11944605B2, “Rapamycin analogs and uses thereof” (Janssen Pharmaceutica NV, priority 2018, dated 2024).
Converted amounts (≈) assume the structure as drawn.

Assays:
[1] = Solubility in 100 mM phosphate buffer (pH 7.4); type: physicochemical; conditions: pH 7.4, aqueous buffer
Source text: The compound numbers correspond to the compound numbers in Table 1.

mTORC1 over mTORC2 = test: mTORC1 selectivity over mTORC2 at 24 hrs (Western blot based pS6K1 and pAKT assay); type: cell-based
[2] = tested on: pS6K1 (p-p70 S6 Kinase (Thr389)) in MCF-7 cells; test: AlphaLISA Ultra pS6K1 Assay; type: cell-based; conditions: Homo sapiens, 1.5 h; MCF7 cells, 90 min
Method in brief: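 AlphaLISA Ultra read-out (acceptor beads 2 h, then donor beads 2 h) on thawed lysates of MCF-7 cells. Cells had 20–24 h after seeding and a 2 h medium change, then 90 min of compound exposure at 0.5% final DMSO, with lysates stored at −80 °C.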

[3] = tested on: pAKT (p-Akt 1/2/3 (Ser473)) in MCF-7 cells; test: AlphaLISA Ultra pAKT Assay; type: cell-based; conditions: Homo sapiens, 1.5 h; MCF7 cells, 90 min
Experimental: AlphaLISA Ultra pAKT Assay
1. MCF-7 cells in Corning 3701 plate and incubate for 20˜24 hour.
16,000˜20,000 cells will be seeded in 36 μL medium per well.
2. Change the culture medium with fresh medium and incubate for another 90 minutes.
3. […]
4. Aspirate […] by HAMILTON, 10 μL rest per well.
5. Add 10 μL 2× lysis buffer using HAMILTON; total volume in wells is 20 μL. Allow cells to shake for 30 min. Cover plate by plastic foil and store plate at −80° C. up to analysis.
6. Thaw cell lysate at RT and transfer 10 ul lysate to assay plate (Optiplate-384).
7. Add 5 μL acceptor beads into assay plate and incubation for 2 hours
8. Add 5 μL donor beads and incubation for 2 hours
9. Count the plate by EnSpire Multimode Plate Reader

Compound | solubility [1] [µM] | IC50 [2] [nM] | IC50 [3] [nM] | mTORC1 selective @ 24 hrs (mTORC1 over mTORC2) | selectivity for mTORC1 over mTORC2 as measured by the impact on pAKT (mTORC1 over mTORC2; extended periods of time (e.g., 24 hours))
CO[C@@H]1C[C@H](C[C@@H](C)[C@@H]2CC(=O)[C@H](C)/C=C(\C)[C@@H](O)[C@@H](OC)C(=O)[C@H](C)C[C@H](C)/C=C/C=C/C=C(\C)C(OCC(CO)CO)C[C@@H]3CC[C@@H](C)[C@@](O)(O3)C(=O)C(=O)N3CCCC[C@H]3C(=O)O2)CC[C@H]1O (stereo partly drawn) [I-31, (21E,23E,25E,26E,31R,32S,33R,34R,36R,38S,41S,42R,43R,53S)-42, 53-dihydroxy-40-[3-hydroxy-2-(hydroxymethyl)propoxy]-41-[(1S)-2-[(1S,3R, 4R)-4-hydroxy-3-methoxy-cyclohexyl]-1-methyl-ethyl]-43-methoxy-31,32,33,34,44,45-hexamethyl-65, 66-dioxa-54-azatricyclohexatriaconta-21,23,25(44),26(45)-tetraene-46,47,48,49,50-pentone] | > 60 | 0.1 to 1 | ≥ 100 | YES | 
CO[C@@H]1C[C@H](C[C@@H](C)[C@@H]2CC(=O)[C@H](C)/C=C(\C)[C@@H](O)[C@@H](OC)C(=O)[C@H](C)C[C@H](C)/C=C/C=C/C=C(\C)C(OCCOCCOCCO)C[C@@H]3CC[C@@H](C)[C@@](O)(O3)C(=O)C(=O)N3CCCC[C@H]3C(=O)O2)CC[C@H]1OCCO (stereo partly drawn) [I-32, (21E,23E,25E,26E,36R,37S,38R,39R,40S,43S,45S,47R,48R,57R)-47, 57-dihydroxy-44-[2-[2-(2-hydroxyethoxy)ethoxy]ethoxy]-45-[(1R)-2-[(1S,2R, 3R)-3-(2-hydroxyethoxy)-2-methoxy-cyclohexyl]-1-methyl-ethyl]-48-methoxy-36,37,38,39,49,50-hexamethyl-68, 69-dioxa-58-azatricyclohexatriaconta-21,23,25(49),26(50)-tetraene-51,52,53,54,55-pentone] | > 60 | 0.1 to 1 | ≥ 100 | YES | 
CO[C@@H]1C[C@H](C[C@@H](C)[C@@H]2CC(=O)[C@H](C)/C=C(\C)[C@@H](O)[C@@H](OC)C(=O)[C@H](C)C[C@H](C)/C=C/C=C/C=C(\C)C(OCCCO)C[C@@H]3CC[C@@H](C)[C@@](O)(O3)C(=O)C(=O)N3CCCC[C@H]3C(=O)O2)CC[C@H]1O (stereo partly drawn) [I-34] | 30 to 60 (≈ 28.7 to 57.5 µg/mL) | 0.1 to 1 | ≥ 100 | NO | 
CO[C@@H]1C[C@H](C[C@@H](C)[C@@H]2CC(=O)[C@H](C)/C=C(\C)[C@@H](O)[C@@H](OC)C(=O)[C@H](C)C[C@H](C)/C=C/C=C/C=C(\C)C(OCCOCCO)C[C@@H]3CC[C@@H](C)[C@@](O)(O3)C(=O)C(=O)N3CCCC[C@H]3C(=O)O2)CC[C@H]1O (stereo partly drawn) [I-37] | 30 to 60 (≈ 29.6 to 59.3 µg/mL) | 1 to 10 | ≥ 100 | YES | 

Further lines, with some results ahead:

solubility [1] [µM] | IC50 [2] [nM] | IC50 [3] [nM] | Compound | mTORC1 selective @ 24 hrs (mTORC1 over mTORC2) | selectivity for mTORC1 over mTORC2 as measured by the impact on pAKT (mTORC1 over mTORC2; extended periods of time (e.g., 24 hours))
30 to 60 (≈ 29.6 to 59.3 µg/mL) | < 0.1 | ≥ 100 | CO[C@@H]1C[C@H](C[C@@H](C)[C@@H]2CC(=O)[C@H](C)/C=C(\C)[C@@H](O)[C@@H](OC)C(=O)[C@H](C)C[C@H](C)/C=C/C=C/C=C(\C)[C@H](OCCOCCO)C[C@@H]3CC[C@@H](C)[C@@](O)(O3)C(=O)C(=O)N3CCCC[C@H]3C(=O)O2)CC[C@H]1O [I-19] | YES | marked selectivity
30 to 60 (≈ 31.4 to 62.8 µg/mL) | 0.1 to 1 | ≥ 100 | COCCOCCOCCOC1C[C@@H]2CC[C@@H](C)[C@@](O)(O2)C(=O)C(=O)N2CCCC[C@H]2C(=O)O[C@H]([C@H](C)C[C@@H]2CC[C@@H](O)[C@H](OC)C2)CC(=O)[C@H](C)/C=C(\C)[C@@H](O)[C@@H](OC)C(=O)[C@H](C)C[C@H](C)/C=C/C=C/C=C/1C (stereo partly drawn) [I-27, (22E,24E,26E,27E,35R,36S,37R,38R,39S,42S,44S,46R,47R,56R)-46,56-dihydroxy-44-[(1R)-2-[(1S, 2R,3R)-3-hydroxy-2-methoxy-cyclohexyl]-1-methyl-ethyl]-47-methoxy-43-[2-[2-(2-methoxyethoxy)ethoxy]ethoxy]-35,36,37,38,48,49-hexamethyl-66,67-dioxa-57-azatricyclohexatriaconta-22, 24,26(48),27(49)-tetraene-50,51,52,53,54-pentone] | YES | 
> 60 | 1 to 10 | ≥ 100 | CO[C@@H]1C[C@H](C[C@@H](C)[C@@H]2CC(=O)[C@H](C)/C=C(\C)[C@@H](O)[C@@H](OC)C(=O)[C@H](C)C[C@H](C)/C=C/C=C/C=C(\C)C(OCCOCCOCCOCCOCCOCCO)C[C@@H]3CC[C@@H](C)[C@@](O)(O3)C(=O)C(=O)N3CCCC[C@H]3C(=O)O2)CC[C@H]1O (stereo partly drawn) [I-33, (21E,23E,25E,26E,40R,41S,42R,43R,45R,47S,50S,51R,52R, 61S)-51,6I-dihydroxy-49-[2-[2-[2-[2-[2-(2-hydroxyethoxy)ethoxy]ethoxy]ethoxy]ethoxy]ethoxy]-50-[(1S)-2-[(1S, 3R,4R)-4-hydroxy-3-methoxy-cyclohexyl]-1-methyl-ethyl]-52-methoxy-40, 41,42,43,53,54-hexamethyl-72,73-dioxa-62-azatricyclohexatriaconta-21, 23,25(53),26(54)-tetraene-55,56,57,58,59-pentone] | YES | 
30 to 60 (≈ 28.3 to 56.7 µg/mL) | < 0.1 | ≥ 100 | CO[C@@H]1C[C@H](C[C@@H](C)[C@@H]2CC(=O)[C@H](C)/C=C(\C)[C@@H](O)[C@@H](OC)C(=O)[C@H](C)C[C@H](C)/C=C/C=C/C=C(\C)C(OCCO)C[C@@H]3CC[C@@H](C)[C@@](O)(O3)C(=O)C(=O)N3CCCC[C@H]3C(=O)O2)CC[C@H]1O (stereo partly drawn) [I-38, (21E,23E,25E,26E,30R,31S,32R,33R,35R,37S,40S,41R,42R,51S)-41, 51-dihydroxy-39-(2-hydroxyethoxy)-40-[(1S)-2-[(1S,3R,4R)-4-hydroxy-3-methoxy-cyclohexyl]-1-methyl-ethyl]-42-methoxy-30, 31,32,33,43,44-hexamethyl-62,63-dioxa-52-azatricyclohexatriaconta-21, 23,25(43),26(44)-tetraene-45,46,47,48,49-pentone] | NO | 
